Structures can show the parent of a compound that is named as a salt. Where two headings read alike, the source gives them in different places.
Columns and labels:
[1] = molecular target: full-length FLAG-tagged B-Raf(V600E) (Homo sapiens (Human), UniProt P15056, V600E); assay: BRAF V600E enzyme assay (TR-FRET competitive displacement); type: binding
How it was run: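 Displacement of 50 nM Tracer 1710 from 5 nM full-length N-terminally FLAG-tagged B-Raf(V600E), detected by TR-FRET with 0.5 nM Eu anti-FLAG antibody, in 25 mM HEPES pH 7.4, 10 mM MgCl2, 2% DMSO; 60 min at ~22 °C. Compounds 11-point, 3-fold from 10 μM; IC50 from 4-parameter fit at 50 POC.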

A375 cells = assay: Cellular phospho-ERK inhibition assay in A375 cells; type: cell-based; settings: Homo sapiens, A-375, A375 cells (head prints A357), 2 hours treatment, read-out: A357 cell IC50
How it was run: (§1)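 A375 (DMEM) or H1755 (RPMI) cells in 10% FBS treated 2 h at 37 °C with 9-point series, 66 pM–10 μM, 0.25% DMSO. Phospho-ERK1/2 (Thr202/Tyr204) measured by In Cell Western, normalised to GAPDH and to DMSO and 10 μM binimetinib controls; IC50 by 4-parameter fit.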

[2] = MDR1 LLC-PK1 and BCRP MDCKII permeability assay: permeability coefficient (Papp); type: in vitro ADME
Source text: (§2) Final organic concentration in the assay was 1%.

H1755 cells = assay: Cellular phospho-ERK inhibition assay in H1755 cells; type: cell-based; settings: Homo sapiens, NCI-H1755, 2 hours treatment, read-out: H1755 Cell IC50
How it was run: as §1

BCRP = BCRP (Homo sapiens (Human), UniProt Q9UNQ0); assay: BCRP MDCKII permeability assay: efflux ratio; type: in vitro ADME; settings: dog
P-gp (MDR1) = P-gp (MDR1) (Homo sapiens (Human), UniProt P08183); assay: MDR1 LLC-PK1 permeability assay: efflux ratio; type: in vitro ADME; settings: pig
Source text: as §2

[3] = averaged IC50, TR-FRET tracer displacement, 60 min

BCRP, sequence (Q9UNQ0 whole entry): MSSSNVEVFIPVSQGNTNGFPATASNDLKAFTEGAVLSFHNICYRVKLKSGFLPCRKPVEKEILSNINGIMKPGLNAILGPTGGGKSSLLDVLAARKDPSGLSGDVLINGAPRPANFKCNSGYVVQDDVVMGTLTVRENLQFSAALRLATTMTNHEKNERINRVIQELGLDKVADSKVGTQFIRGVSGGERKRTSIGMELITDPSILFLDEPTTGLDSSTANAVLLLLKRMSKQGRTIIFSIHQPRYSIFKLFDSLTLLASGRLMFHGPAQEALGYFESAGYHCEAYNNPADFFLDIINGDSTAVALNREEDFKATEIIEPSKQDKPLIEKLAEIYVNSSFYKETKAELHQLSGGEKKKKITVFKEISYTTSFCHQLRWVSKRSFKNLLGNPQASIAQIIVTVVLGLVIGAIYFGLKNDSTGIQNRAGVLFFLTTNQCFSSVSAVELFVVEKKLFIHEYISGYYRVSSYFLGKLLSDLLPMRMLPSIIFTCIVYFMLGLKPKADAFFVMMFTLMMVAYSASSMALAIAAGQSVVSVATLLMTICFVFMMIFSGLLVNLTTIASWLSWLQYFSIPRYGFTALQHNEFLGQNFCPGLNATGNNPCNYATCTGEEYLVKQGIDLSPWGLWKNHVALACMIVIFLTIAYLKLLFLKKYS
full-length FLAG-tagged B-Raf(V600E), sequence (P15056 whole entry V600E): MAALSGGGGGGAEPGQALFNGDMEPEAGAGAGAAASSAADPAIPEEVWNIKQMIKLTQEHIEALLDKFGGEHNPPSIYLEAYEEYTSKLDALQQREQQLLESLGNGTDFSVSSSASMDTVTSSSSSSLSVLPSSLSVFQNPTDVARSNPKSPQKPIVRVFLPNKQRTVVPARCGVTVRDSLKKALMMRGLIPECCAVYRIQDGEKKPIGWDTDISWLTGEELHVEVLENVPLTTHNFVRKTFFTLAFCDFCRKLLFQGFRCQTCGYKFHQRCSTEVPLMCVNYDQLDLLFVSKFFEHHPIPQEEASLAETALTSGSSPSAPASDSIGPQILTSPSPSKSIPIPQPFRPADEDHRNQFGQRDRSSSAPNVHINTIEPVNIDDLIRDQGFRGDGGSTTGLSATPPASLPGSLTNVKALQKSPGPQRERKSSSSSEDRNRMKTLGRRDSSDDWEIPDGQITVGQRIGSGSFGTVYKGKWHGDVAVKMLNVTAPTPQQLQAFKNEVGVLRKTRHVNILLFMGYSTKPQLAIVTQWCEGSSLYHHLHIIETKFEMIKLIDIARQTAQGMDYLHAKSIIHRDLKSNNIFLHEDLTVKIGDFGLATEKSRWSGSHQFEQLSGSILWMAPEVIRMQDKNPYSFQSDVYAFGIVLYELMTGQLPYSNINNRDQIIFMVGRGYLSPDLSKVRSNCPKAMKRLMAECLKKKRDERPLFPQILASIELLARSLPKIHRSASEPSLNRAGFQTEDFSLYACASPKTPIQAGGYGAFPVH
P-gp (MDR1), sequence (P08183 whole entry, species assumed): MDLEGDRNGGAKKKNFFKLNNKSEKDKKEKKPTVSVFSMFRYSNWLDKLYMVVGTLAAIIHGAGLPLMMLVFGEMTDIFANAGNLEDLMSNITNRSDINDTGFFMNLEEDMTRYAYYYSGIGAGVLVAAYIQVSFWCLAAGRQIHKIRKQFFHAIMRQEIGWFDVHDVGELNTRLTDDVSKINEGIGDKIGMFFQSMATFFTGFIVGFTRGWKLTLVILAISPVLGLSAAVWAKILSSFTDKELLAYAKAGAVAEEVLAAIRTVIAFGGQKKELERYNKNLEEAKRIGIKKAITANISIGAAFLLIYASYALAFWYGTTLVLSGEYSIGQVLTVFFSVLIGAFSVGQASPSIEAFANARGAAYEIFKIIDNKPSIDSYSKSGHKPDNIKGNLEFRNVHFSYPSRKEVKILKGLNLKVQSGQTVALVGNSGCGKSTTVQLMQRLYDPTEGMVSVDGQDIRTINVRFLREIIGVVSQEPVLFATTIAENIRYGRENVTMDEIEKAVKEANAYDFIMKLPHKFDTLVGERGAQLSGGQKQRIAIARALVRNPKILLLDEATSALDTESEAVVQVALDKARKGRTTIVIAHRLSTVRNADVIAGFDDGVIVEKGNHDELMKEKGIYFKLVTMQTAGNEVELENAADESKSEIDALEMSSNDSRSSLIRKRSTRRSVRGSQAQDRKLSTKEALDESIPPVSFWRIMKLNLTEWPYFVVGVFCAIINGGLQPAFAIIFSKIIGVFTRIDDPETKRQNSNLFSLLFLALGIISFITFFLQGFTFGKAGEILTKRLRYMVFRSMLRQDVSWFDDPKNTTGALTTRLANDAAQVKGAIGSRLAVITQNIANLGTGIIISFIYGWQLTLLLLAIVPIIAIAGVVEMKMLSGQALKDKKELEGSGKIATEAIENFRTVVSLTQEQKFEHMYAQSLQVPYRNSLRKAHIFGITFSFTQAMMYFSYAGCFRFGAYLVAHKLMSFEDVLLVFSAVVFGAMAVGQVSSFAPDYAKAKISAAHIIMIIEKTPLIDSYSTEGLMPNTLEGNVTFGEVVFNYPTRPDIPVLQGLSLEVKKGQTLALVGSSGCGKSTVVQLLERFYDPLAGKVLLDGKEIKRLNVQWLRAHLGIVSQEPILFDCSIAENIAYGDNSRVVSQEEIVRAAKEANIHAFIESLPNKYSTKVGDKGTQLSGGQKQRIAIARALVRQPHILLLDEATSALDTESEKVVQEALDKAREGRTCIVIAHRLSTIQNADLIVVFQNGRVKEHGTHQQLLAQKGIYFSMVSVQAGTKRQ

Structure (SMILES) | IC50 [1, 3] [nM] | IC50 (A375 cells) [nM] | Papp at 2 h, 1 µM [2] [×10⁻⁶ cm/s] | IC50 (H1755 cells) [nM] | efflux ratio at 2 h, 1 µM (BCRP) | efflux ratio at 2 h, 1 µM (P-gp (MDR1)) | IC50 [1] [nM]
Cc1c(Nc2cc(F)cc(NS(=O)(=O)N3CCCC3)c2Cl)ccc2ncn(C)c(=O)c12 [Example 150, N-(2-chloro-3-((3,5-dimethyl-4-oxo-3,4-dihydroquinazolin-6-yl)amino)-5-fluorophenyl)pyrrolidine-1-sulfonamide] | 18 | 342 | 27 | 548 | 1.4 | 1.3 | –
Cc1c(Nc2c(F)ccc(NS(=O)(=O)N3CC(F)(F)C3)c2Cl)ccc2ncn(C)c(=O)c12 [Example 134, N-(2-chloro-3-((3,5-dimethyl-4-oxo-3,4-dihydroquinazolin-6-yl)amino)-4-fluorophenyl)-3,3-difluoroazetidine-1-sulfonamide] | 7 | 68 | 33 | 327 | 6.4 | 1.4 | –
CN(C)S(=O)(=O)Nc1ccc(F)c(Oc2ccc3ncn(C)c(=O)c3c2Cl)c1Cl [Example 110, N-(2-chloro-3-((5-chloro-3-methyl-4-oxo-3,4-dihydroquinazolin-6-yl)oxy)-4-fluorophenyl)-(N,N-dimethyl)-sulfamide] | 8 | 6 | 34 | 48 | 1.4 | 1.5 | –
Cn1cnc2ccc(Nc3c(F)c(F)cc(NS(=O)(=O)N4CC[C@@H](F)C4)c3Cl)c(Cl)c2c1=O [Example 33, (R)-N-(2-chloro-3-((5-chloro-3-methyl-4-oxo-3,4-dihydroquinazolin-6-yl)amino)-4,5-difluorophenyl)-3-fluoropyrrolidine-1-sulfonamide trifluoroacetate] | 1 | 8 | 25 | 84 | 2.2 | 1.7 | –
CCN(C)S(=O)(=O)Nc1cc(F)c(F)c(Nc2ccc3ncn(C)c(=O)c3c2F)c1Cl [Example 45, N-(2-chloro-4,5-difluoro-3-((5-fluoro-3-methyl-4-oxo-3,4-dihydroquinazolin-6-yl)phenyl)-(N-ethyl-N-methyl)-sulfamide trifluoroacetate] | 4 | 4 | 40 | 102 | 1.6 | 1.6 | –
CC[C@@H]1CCN(S(=O)(=O)Nc2ccc(F)c(Nc3ccc4ncn(C)c(=O)c4c3Cl)c2Cl)C1 [Example 106, (R)-N-(2-chloro-3-((5-chloro-3-methyl-4-oxo-3,4-dihydroquinazolin-6-yl)amino)-4-fluorophenyl)-3-ethylpyrrolidine-1-sulfonamide trifluoroacetate] | 12 | 131 | 22 | 430 | 0.8 | 1.2 | –
CCN(C)S(=O)(=O)Nc1ccc(F)c(Oc2ccc3ncn(C)c(=O)c3c2C)c1Cl [Example 68, 6-(2-Chloro-3-{[ethyl(methyl)sulfamoyl]amino}-6-fluorophenoxy)-3,5-dimethyl-3,4 dihydroquinazolin-4-one] | – | 64 | 25 | 286 | 1 | 0.7 | 21
Cc1c(Nc2c(F)ccc(NS(=O)(=O)N3CC4CC4C3)c2Cl)ccc2ncn(C)c(=O)c12 (stereo not drawn) [Example 92, N-(2-chloro-3-((3,5-dimethyl-4-oxo-3,4-dihydroquinazolin-6-yl)amino)-4-fluorophenyl)-3-azabicyclo[3.1.0]hexane-3-sulfonamide] | 8 | 36 | 22 | 35 | 1.9 | 1.2 | –
Cn1cnc2ccc(Nc3c(F)ccc(NS(=O)(=O)N4CC(COC(F)F)C4)c3Cl)c(Cl)c2c1=O [Example 138, N-(2-chloro-3-((5-chloro-3-methyl-4-oxo-3,4-dihydroquinazolin-6-yl)amino)-4-fluorophenyl)-3-((difluoromethoxy)methyl)azetidine-1-sulfonamide trifluoroacetate] | 3 | 6 | 33 | 26 | 3.1 | 3.1 | –
Cc1c(Nc2c(F)ccc(NS(=O)(=O)N3CC4C(F)C4C3)c2Cl)ccc2ncn(C)c(=O)c12 (stereo not drawn) [Example 148, N-(2-chloro-3-((3,5-dimethyl-4-oxo-3,4-dihydroquinazolin-6-yl)amino)-4-fluorophenyl)-6-fluoro-3-azabicyclo[3.1.0]hexane-3-sulfonamide] | 27 | 426 | 22 | 854 | 1.8 | 2.4 | –
COCC1CN(S(=O)(=O)Nc2ccc(F)c(Oc3ccc4ncn(C)c(=O)c4c3F)c2Cl)C1 [Example 121, N-(2-chloro-4-fluoro-3-((5-fluoro-3-methyl-4-oxo-3,4-dihydroquinazolin-6-yl)oxy)phenyl)-3-(methoxymethyl)azetidine-1-sulfonamide] | 9 | 7 | 35 | 18 | 6 | 1.9 | –
Cn1cnc2ccc(Oc3c(F)ccc(NS(=O)(=O)N4CC5CC4C5)c3Cl)c(F)c2c1=O [Example 49, N-(2-chloro-4-fluoro-3-((5-fluoro-3-methyl-4-oxo-3,4-dihydroquinazolin-6-yl)oxy)phenyl)-2-azabicyclo[2.1.1]hexane-2-sulfonamide] | 2 | 3 | 30 | 70 | 1 | 1.4 | –
CCN(C)S(=O)(=O)Nc1ccc(F)c(Nc2ccc3ncn(C)c(=O)c3c2Cl)c1Cl [Example 2] | 36 | 15 | 31 | 58 | 1 | 1.2 | –
CO[C@@H]1CCN(S(=O)(=O)Nc2ccc(F)c(Oc3ccc4ncn(C)c(=O)c4c3C)c2Cl)C1 [Example 10, (R)-N-(2-chloro-3-((3,5-dimethyl-4-oxo-3,4-dihydroquinazolin-6-yl)oxy)-4-fluorophenyl)-3-methoxypyrrolidine-1-sulfonamide] | 8 | 12 | 27 | 84 | 0.7 | 1.6 | –
Cn1cnc2ccc(Oc3c(F)ccc(NS(=O)(=O)N4CC5CC5C4)c3Cl)c(F)c2c1=O (stereo not drawn) [Example 65, N-(2-chloro-4-fluoro-3-((5-fluoro-3-methyl-4-oxo-3,4-dihydroquinazolin-6-yl)oxy)phenyl)-3-azabicyclo[3.1.0]hexane-3-sulfonamide] | – | 13 | 28 | 127 | 1 | 1.3 | 2
Cn1cnc2ccc(Nc3c(F)c(F)cc(NS(=O)(=O)N4CC[C@@H](F)C4)c3F)c(Cl)c2c1=O [Example 36, (R)-N-(3-((5-chloro-3-methyl-4-oxo-3,4-dihydroquinazolin-6-yl)amino)-2,4,5-trifluorophenyl)-3-fluoropyrrolidine-1-sulfonamide trifluoroacetate] | 1 | 5 | 25 | 61 | 9.9 | 2.9 | –
[2H]C([2H])([2H])O[C@@H]1CCN(S(=O)(=O)Nc2ccc(F)c(Nc3ccc4ncn(C)c(=O)c4c3C)c2Cl)C1 [Example 55, (R)-N-(2-chloro-3-((3,5-dimethyl-4-oxo-3,4-dihydroquinazolin-6-yl)amino)-4-fluorophenyl)-3-(methoxy-d3)pyrrolidine-1-sulfonamide trifluoroacetate] | 45 | 27 | 33 | 124 | 1 | 1.5 | –
Cc1c(Nc2c(F)ccc(NS(=O)(=O)N3CC(F)C3)c2Cl)ccc2ncn(C)c(=O)c12 [Example 125, N-(2-chloro-3-((3,5-dimethyl-4-oxo-3,4-dihydroquinazolin-6-yl)amino)-4-fluorophenyl)-3-fluoroazetidine-1-sulfonamide] | 5 | 18 | 37 | 1010 | 1.6 | 1.2 | –
Cc1c(Nc2c(F)c(F)cc(NS(=O)(=O)N3CCCC3)c2Cl)ccc2ncn(C)c(=O)c12 [Example 96, N-(2-chloro-3-((3,5-dimethyl-4-oxo-3,4-dihydroquinazolin-6-yl)amino)-4,5-difluorophenyl)pyrrolidine-1-sulfonamide] | 3 | 40 | 27 | 586 | 1.1 | 1.2 | –
